Reference: the OPERA property sets (Mansouri et al. 2018)

SMILES	logP
CC(C)C(=O)Nc1cc(Cl)ccc1S(N)(=O)=O	1.87
Cc1ccc(S(=O)(=O)NC(=O)C(C)C)c([N+](=O)[O-])c1	2.17
CCC(CC)C(=O)Nc1ccccc1S(N)(=O)=O	1.62
CCC(CC)C(=O)NS(=O)(=O)c1ccccc1N	1.64
COc1ccc(S(=O)(=O)NC(=O)C(C)C)c(N)c1	1.58
COc1ccc(S(N)(=O)=O)c(NC(=O)C(C)C)c1	1.37
CCC(CC)C(=O)Nc1cc(OC)ccc1S(N)(=O)=O	2.01
CC(C)C(=O)NS(=O)(=O)c1ccccc1[N+](=O)[O-]	1.72
CCC(CC)C(=O)Nc1cc(C(F)(F)F)ccc1S(N)(=O)=O	3.06
CCC(CC)C(=O)Nc1cc(C)ccc1S(N)(=O)=O	2.13
Cc1ccc(S(N)(=O)=O)c(NC(=O)C(C)C)c1	1.45
CCC(CC)C(=O)NS(=O)(=O)c1ccc(C)cc1[N+](=O)[O-]	2.67
CCC(CC)C(=O)NS(=O)(=O)c1ccc(OC)cc1N	2.03
CC(C)C(=O)NS(=O)(=O)c1ccccc1N	1.17
CCC(CC)C(=O)NS(=O)(=O)c1ccccc1[N+](=O)[O-]	2.17
Cc1ccc(S(=O)(=O)NC(=O)C(C)C)c(N)c1	1.65
CCC(CC)C(=O)NS(=O)(=O)c1cc([N+](=O)[O-])cc(C(F)(F)F)c1	3.57
CC(C)C(=O)Nc1ccccc1S(N)(=O)=O	0.97
